Like-named read-outs stand apart in the source and are kept apart here.
Tests used:
MDA-MB-231 = assay: MTT anti-proliferative assay, MDA-MB-231; assay type: cell-based; conditions: Homo sapiens
Protocol: (§1) These compounds, along with all newly synthesized compounds, were screened for anti-proliferative activity against the same TNBC and colon cancer cell lines.
(§2) Cell viability was evaluated by measuring the reduction in MTT to yield blue formazan. Cells were cultured in 96-well plates, allowed to attach overnight, and then treated with compounds. After treatment, MTT solution (1 mg/mL) was added to each well, and plates were incubated for another 2 h. Medium was removed, blue formazan was dissolved in DMSO, and the absorbance was read at 570 nm by Multiskan Go spectrophotometer (Thermo Scientific, Madison, WI, USA).

HCT-116 = assay: MTT anti-proliferative assay, HCT-116; assay type: cell-based; conditions: Homo sapiens
Protocol: as §1, §2

[1] = system: HCT-116 colon tumor xenograft; assay: In vivo antitumor activity, HCT-116 colon tumor xenograft bearing nude mice; set-up: species or system nu/nu mice; conditions: 30 mg/kg i.p. QOD, positive control
Protocol: The therapeutic effect of 2 was evaluated on HCT-116 colon tumor xenograft bearing nude mice. The oral administration of 2 at doses of 50, 100, or 150 mg/kg bw per day were performed after tumors reached approximately 100 mm^3 and continued for 30 consecutive days. 5-Fluorouracil treatment (30 mg/kg bw, i.p., QOD) was used as a positive control. […] There was a clear dose- and time-dependent inhibitory effect on tumor size in the other two groups, in which at 50 and 150 mg/kg doses the volume of the HCT-116 colon tumor was reduced to 73% and 40% of the control, respectively (Figure 2). The body weight of the mice was recorded prior to dosing every 3 d, and the average body weight of each group is depicted in Figure 3. Otherwise, they were monitored for visible signs of toxicity and behavioral changes 1 h after each administration.
Male nu/nu mice (5 weeks old) from National Laboratory Animal Center (Taipei, Taiwan) were maintained under the procedures and guidelines provided by the Institutional Animal Care and Use Committee of the National Health Research Institutes (Taipei, Taiwan). All experiments were supervised under the Institutional Animal Care and Use Committee, China Medical University, Taichung, Taiwan with a protocol number ([…]-2018-278). HCT-116 colon cancer cells (5 × 10^6 cells per mouse) were suspended in 0.1 mL of Matrigel solution (50% v/v Matrigel in PBS) and inoculated into the mammary fat pads of the mice. When the tumor size reached 100 mm^3, the tumor-bearing mice were randomly divided into four groups for treating with vehicle (5% ethanol and 10% tween 80 in 85% saline, 0.1 mL) and 2 (p.o. 50, 100 and 150 mg/kg/day body weight) respectively. Compounds was administered via oral route daily for 30 days. 5-Fluorouracil-treated group (i.p. 30 mg/kg) is the positive control. Tumor size and mouse body weight were measured once every 3 days, and tumor volume (mm^3) was calculated using the equation: length × (width)^2 × 0.5. At the end of experiments, mice were sacrificed.

[2] = 48 h treatment, MTT, mean ± SD of at least three experiments, read-out: IC50 (M)/ 48 h MDA-MB-231
[3] = 48 h treatment, MTT, mean ± SD of at least three experiments, read-out: IC50 (M)/ 48 h HCT-116
[4] = anti-proliferative screening, read-out: IC50 MDA-MB-231
[5] = anti-proliferative screening, read-out: IC50 HCT-116

Structure (SMILES) | melting point | IC50 (MDA-MB-231; [2]) | IC50 (HCT-116; [3]) | IC50 (MDA-MB-231; [4]) | IC50 (HCT-116; [5]) | tumor-growth inhibition [1]
COc1cc(/C=C/C(=O)C(Cc2ccccc2)(Cc2ccccc2)C(=O)/C=C/c2ccc(OC(=O)C(C)(CO)CO)c(OC)c2)ccc1OC(=O)C(C)(CO)CO [Compound 4] | – | 2.45e-06 ± 2.4e-07 M | 7.66e-06 ± 6.1e-07 M | – | – | –
CCC(CC)(C(=O)/C=C/c1ccc(O)c(OC)c1)C(=O)/C=C/c1ccc(O)c(OC)c1 [Compound 3m, (1E,6E)-4,4-Diethyl-1,7-bis(4-hydroxy-3-methoxyphenyl)hepta-1,6-diene-3,5-dione] | 114 to 115 °C | 9.12e-06 ± 4e-07 M | 8.18e-06 ± 5.7e-07 M | – | – | –
COc1cc(/C=C/C(=O)C(COC(C)=O)(COC(C)=O)C(=O)/C=C/c2ccc(OC(=O)C(C)(CO)CO)c(OC)c2)ccc1OC(=O)C(C)(CO)CO [Compound 10, [(1E,6E)-4,4-bis(Acetoxymethyl)-3,5-dioxohepta-1,6-diene-1,7-diyl]bis(2-methoxy-4,1-phenylene) bis[3-hydroxy-2-(hydroxymethyl)-2-methylpropanoate]] | 194 to 196 °C | 6.55e-06 ± 4e-08 M | 6.53e-06 ± 1e-08 M | – | – | –
C#CCC(CC#C)(C(=O)/C=C/c1ccc(OC(=O)C(C)(CO)CO)c(OC)c1)C(=O)/C=C/c1ccc(OC(=O)C(C)(CO)CO)c(OC)c1 [Compound 5] | – | 5.87e-06 ± 1e-07 M | 5.81e-06 ± 2.3e-07 M | – | – | –
O=c1[nH]cc(F)c(=O)[nH]1 [5-Fluorouracil, reference compound] | – | – | – | – | – | 40%
COc1cc(/C=C/C(=O)C(Cc2ccccc2)(Cc2ccccc2)C(=O)/C=C/c2ccc(O)c(OC)c2)ccc1O [Compound 4m, (1E,6E)-4,4-Dibenzyl-1,7-bis(4-hydroxy-3-methoxyphenyl)hepta-1,6-diene-3,5-dione] | 134 to 135 °C | 3.65e-05 ± 1.66e-06 M | 9.4e-06 ± 2e-08 M | – | – | –
CCC(CC)(C(=O)/C=C/c1ccc(OC(=O)C(C)(CO)CO)c(OC)c1)C(=O)/C=C/c1ccc(OC(=O)C(C)(CO)CO)c(OC)c1 [Compound 3] | – | 3.02e-06 ± 1.5e-07 M | 1.93e-06 ± 1e-08 M | – | – | –
COc1cc(/C=C/C(=O)CC(=O)/C=C/c2ccc(O)c(OC)c2)ccc1O [Curcumin, (1E,6E)-1,7-bis(4-hydroxy-3-methoxyphenyl)hepta-1,6-diene-3,5-dione] | – | 2.21e-05 ± 2.97e-06 M | 2.63e-05 ± 1.38e-06 M | – | – | –

The next lines start with results.

melting point | IC50 (MDA-MB-231; [2]) | IC50 (HCT-116; [3]) | IC50 (MDA-MB-231; [4]) | IC50 (HCT-116; [5]) | Structure (SMILES) | tumor-growth inhibition [1]
174 to 176 °C | 5.35e-05 ± 3.45e-06 M | 5.8e-05 ± 6e-07 M | – | – | COc1ccc(/C=C/C(=O)C(CO)(CO)C(=O)/C=C/c2ccc(OC)c(OC)c2)cc1OC [Compound 12, (1E,6E)-1,7-bis(3,4-Dimethoxyphenyl)-4,4-bis(hydroxymethyl)hepta-1,6-diene-3,5-dione] | –
144 to 146 °C | > 0.0001 M | 6.7e-05 ± 3.18e-06 M | – | – | CCCCC(CCCC)(C(=O)/C=C/c1ccc(O)c(OC)c1)C(=O)/C=C/c1ccc(O)c(OC)c1 [Compound 16, (1E,6E)-4,4-Dibutyl-1,7-bis(4-hydroxy-3-methoxyphenyl)hepta-1,6-diene-3,5-dione] | –
– | 6.88e-06 ± 3.6e-07 M | 4.4e-06 ± 5.3e-07 M | – | – | C=CCC(CC=C)(C(=O)/C=C/c1ccc(O)c(OC)c1)C(=O)/C=C/c1ccc(O)c(OC)c1 [Compound 6m, (1E,6E)-4,4-Diallyl-1,7-bis(4-hydroxy-3-methoxyphenyl)hepta-1,6-diene-3,5-dione] | –
– | – | – | 3.648e-05 ± 3.4e-07 M | 9.64e-06 ± 2.1e-07 M | COc1cc(/C=C/C(=O)C(C)(C)C(=O)CCc2ccc(O)c(OC)c2)ccc1O [Compound 18, (E)-1,7-bis(4-Hydroxy-3-methoxyphenyl)-4,4-dimethylhept-1-ene-3,5-dione] | –
137 to 139 °C | 1.82e-05 ± 5.3e-07 M | 1.07e-05 ± 1.63e-06 M | – | – | CCCC(CCC)(C(=O)/C=C/c1ccc(O)c(OC)c1)C(=O)/C=C/c1ccc(O)c(OC)c1 [Compound 15, (1E,6E)-1,7-bis(4-Hydroxy-3-methoxyphenyl)-4,4-dipropylhepta-1,6-diene-3,5-dione] | –
> 300 °C | 5.74e-05 ± 2.06e-06 M | 4.01e-05 ± 1.61e-06 M | – | – | COc1ccc(/C=C/C(=O)C(COC(=O)C(C)(CO)CO)(COC(=O)C(C)(CO)CO)C(=O)/C=C/c2ccc(OC)c(OC)c2)cc1OC [Compound 14, 2,2-bis[(E)-3-(3,4-Dimethoxyphenyl)acryloyl]propane-1,3-diylbis[3-hydroxy-2-(hydroxymethyl)-2-methylpropanoate]] | –
– | – | – | ≥ 0.0001 M | ≥ 0.0001 M | COc1cc(CCC(=O)C(C)(C)C(=O)CCc2ccc(O)c(OC)c2)ccc1O [Compound 19, 1,7-bis(4-Hydroxy-3-methoxyphenyl)-4,4-dimethylheptane-3,5-dione] | –
– | – | – | ≥ 0.0001 M | ≥ 0.0001 M | COc1cc(CCC(=O)C(C)(C)C(O)CCc2ccc(O)c(OC)c2)ccc1O (stereo not drawn) [Compound 20, 5-hydroxy-1,7-bis(4-hydroxy-3-methoxyphenyl)-4,4-dimethylheptan-3-one] | –
– | 3.1e-06 ± 1.5e-07 M | 1.38e-06 ± 6e-08 M | – | – | C#CCC(CC#C)(C(=O)/C=C/c1ccc(O)c(OC)c1)C(=O)/C=C/c1ccc(O)c(OC)c1 [Compound 5m, (1E,6E)-1,7-bis(4-Hydroxy-3-methoxyphenyl)-4,4-di(prop-2-yn-1-yl)hepta-1,6-diene-3,5-dione] | –
195 to 197 °C | 3.13e-06 ± 5.4e-07 M | 9.2e-07 ± 6e-08 M | – | – | C=CCC(CC=C)(C(=O)/C=C/c1ccc(OC(=O)C(C)(CO)CO)c(OC)c1)C(=O)/C=C/c1ccc(OC(=O)C(C)(CO)CO)c(OC)c1 [Compound 6, [(1E,6E)-4,4-Diallyl-3,5-dioxohepta-1,6-diene-1,7-diyl]bis(2-methoxy-4,1-phenylene) bis[3-hydroxy-2-(hydroxymethyl)-2-methylpropanoate]] | –
187 to 188 °C | 8.49e-05 ± 1.67e-06 M | 6.91e-05 ± 3.11e-06 M | – | – | COCC(COC)(C(=O)/C=C/c1ccc(OC(=O)C(C)(CO)CO)c(OC)c1)C(=O)/C=C/c1ccc(OC(=O)C(C)(CO)CO)c(OC)c1 [Compound 11, [(1E,6E)-4,4-bis(Methoxymethyl)-3,5-dioxohepta-1,6-diene-1,7-diyl]bis(2-methoxy-4,1-phenylene) bis[3-hydroxy-2-(hydroxymethyl)-2-methylpropanoate]] | –
– | – | – | ≥ 0.0001 M | ≥ 0.0001 M | COc1cc(CCC(O)C(C)(C)C(O)CCc2ccc(O)c(OC)c2)ccc1O (stereo not drawn) [Compound 21, 1,7-bis(4-Hydroxy-3-methoxyphenyl)-4,4-dimethylheptane-3,5-diol] | –

From publication PMC7037731, “Synthesis, Anticancer Activity, and Preliminary Pharmacokinetic Evaluation of 4,4-Disubstituted Curcuminoid 2,2-bis(Hydroxymethyl)Propionate Derivatives” (Molecules, 2020)
